Data reported in PubChem BioAssay AID330 (DTP/NCI, 2004).
Several values for one entry are separate records, joined by “and”; a condition that tells them apart may be missing. Identical values can stand only once. Inconclusive results and toxic doses are left out. The calls were made as follows: active = survival T/C of 150% or more; inactive = T/C below 125% in these data.

Test system: P388 leukemia ip, CD2F1 mice, survival T/C
Experiment: NCI In Vivo Anticancer Drug Screen. Data for tumor model P388 Leukemia (intraperitoneal) in CD2F1 (CDF1) mice
Conditions: endpoint: median survival time, higher = longer survival
Method in brief: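 Mice carrying the transplanted tumor received test compound or vehicle. Survival was recorded in each group, and the value is the treated-group measurement divided by that of the vehicle-treated control group.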

[1] = dose: 50.0 mg/kg/injection, schedule: Q01DX005 (ip), vehicle: saline with Tween-80
[2] = dose: 100.0 mg/kg/injection, schedule: Q01DX005 (ip), vehicle: saline with Tween-80
[3] = dose: 200.0 mg/kg/injection, schedule: Q01DX005 (ip), vehicle: saline with Tween-80
[4] = dose: 60.0 mg/kg/injection, schedule: Q01DX005 (ip), vehicle: saline with Tween-80
[5] = dose: 120.0 mg/kg/injection, schedule: Q01DX005 (ip), vehicle: saline with Tween-80
[6] = dose: 240.0 mg/kg/injection, schedule: Q01DX005 (ip), vehicle: saline with Tween-80
[7] = dose: 6.25 mg/kg/injection, schedule: Q01DX009 (ip), vehicle: Klucel (hydroxypropylcellulose) (HPC)
[8] = dose: 12.5 mg/kg/injection, schedule: Q01DX009 (ip), vehicle: Klucel (hydroxypropylcellulose) (HPC)
[9] = dose: 25.0 mg/kg/injection, schedule: Q01DX009 (ip), vehicle: Klucel (hydroxypropylcellulose) (HPC)
[10] = dose: 50.0 mg/kg/injection, schedule: Q01DX005 (ip), vehicle: Klucel (hydroxypropylcellulose) (HPC)
[11] = dose: 100.0 mg/kg/injection, schedule: Q01DX005 (ip), vehicle: Klucel (hydroxypropylcellulose) (HPC)
[12] = dose: 200.0 mg/kg/injection, schedule: Q01DX005 (ip), vehicle: Klucel (hydroxypropylcellulose) (HPC)
[13] = dose: 50.0 mg/kg/injection, schedule: Q01DX009 (ip), vehicle: Klucel (hydroxypropylcellulose) (HPC)
[14] = dose: 100.0 mg/kg/injection, schedule: Q01DX009 (ip), vehicle: Klucel (hydroxypropylcellulose) (HPC)
[15] = dose: 200.0 mg/kg/injection, schedule: Q01DX009 (ip), vehicle: Klucel (hydroxypropylcellulose) (HPC)
[16] = dose: 25.0 mg/kg/injection, schedule: Q01DX009 (ip), vehicle: saline with Tween-80
[17] = dose: 50.0 mg/kg/injection, schedule: Q01DX009 (ip), vehicle: saline with Tween-80
[18] = dose: 100.0 mg/kg/injection, schedule: Q01DX009 (ip), vehicle: saline with Tween-80

Measured: T/C

COc1ccccc1-n1c(SC)nccc1=O
inactive: dose: 100.0 mg/kg/injection, schedule: Q04DX002 (ip), vehicle: Klucel (hydroxypropylcellulose) (HPC) 100 % of control | dose: 200.0 mg/kg/injection, schedule: Q04DX002 (ip), vehicle: Klucel (hydroxypropylcellulose) (HPC) 100 % of control | dose: 400.0 mg/kg/injection, schedule: Q04DX002 (ip), vehicle: Klucel (hydroxypropylcellulose) (HPC) 94 % of control

COC(=O)C[N+](C)(C)Cc1ccccc1
inactive: dose: 50.0 mg/kg/injection, schedule: Q01DX009 (ip), vehicle: DMSO 97 % of control | dose: 100.0 mg/kg/injection, schedule: Q01DX009 (ip), vehicle: DMSO 99 % of control

Cc1c2c[n+]([O-])ccc2c(C)c2c1c1ccccc1n2C
inactive: dose: 12.5 mg/kg/injection, schedule: Q04DX002 (ip), vehicle: saline with Tween-80 101 % of control | dose: 25.0 mg/kg/injection, schedule: Q04DX002 (ip), vehicle: saline with Tween-80 101 % of control | dose: 50.0 mg/kg/injection, schedule: Q04DX002 (ip), vehicle: saline with Tween-80 103 % of control | dose: 100.0 mg/kg/injection, schedule: Q04DX002 (ip), vehicle: saline with Tween-80 107 % of control | dose: 200.0 mg/kg/injection, schedule: Q04DX002 (ip), vehicle: saline with Tween-80 113 % of control

COc1cc(-c2ccc(N=Nc3ccc4c(S(=O)(=O)O)cc(S(=O)(=O)O)c(N)c4c3O)c(OC)c2)ccc1N=Nc1ccc2c(S(=O)(=O)O)cc(S(=O)(=O)O)c(N)c2c1O
inactive: dose: 12.5 mg/kg/injection, schedule: Q01DX009 (ip), vehicle: saline 94 % of control | dose: 25.0 mg/kg/injection, schedule: Q01DX009 (ip), vehicle: saline 92 % of control

COc1cc2c(/C=N/NC(N)=S)c(Cl)[nH]c2cc1C
inactive: dose: 25.0 mg/kg/injection, schedule: Q04DX003 (ip), vehicle: saline with Tween-80 105 % of control | dose: 50.0 mg/kg/injection, schedule: Q04DX003 (ip), vehicle: saline with Tween-80 107 % of control | dose: 100.0 mg/kg/injection, schedule: Q01DX001 (ip), vehicle: saline with Tween-80 102 % of control | dose: 100.0 mg/kg/injection, schedule: Q04DX003 (ip), vehicle: saline with Tween-80 90 % of control | dose: 200.0 mg/kg/injection, schedule: Q01DX001 (ip), vehicle: saline with Tween-80 100 % of control | dose: 200.0 mg/kg/injection, schedule: Q04DX003 (ip), vehicle: saline with Tween-80 98 % of control | dose: 400.0 mg/kg/injection, schedule: Q01DX001 (ip), vehicle: saline with Tween-80 90 % of control

CS(C)=Nc1ccc(Cl)cc1
inactive: dose: 100.0 mg/kg/injection, schedule: Q01DX001 (ip), vehicle: saline 109 % of control

OCN1CCC23c4c5ccc(O)c4OC2C(O)C=CC3C1C5 (configuration not stated)
inactive: [1] 100 % of control | [2] 100 % of control | [3] 100 % of control

CC12C(=O)NC(c3ccncc3)(c3ccccc31)C1C(=O)N(c3ccccc3)C(=O)C12 (configuration not stated)
inactive: [4] 96 % of control | [5] 94 % of control | [6] 94 % of control

CCOC(CN)(OCC)c1ccncc1
inactive: dose: 50.0 mg/kg/injection, schedule: Q01DX005 (ip), vehicle: saline 102 % of control | dose: 100.0 mg/kg/injection, schedule: Q01DX005 (ip), vehicle: saline 101 % of control | dose: 200.0 mg/kg/injection, schedule: Q01DX005 (ip), vehicle: saline 101 % of control

CC(=O)C(O)CC(=O)C(O)CC(=O)C(O)N1C(=O)C=CC1=O (configuration not stated)
inactive: [7] 93 % of control | [8] 95 % of control | [9] 97 % of control

CN1CC[S][Sn]([CH2][Sn]2([c]3ccccc3)[S]CCN(C)CC[S]2)([c]2ccccc2)[S]CC1
inactive: [10] 99 % of control | [11] 101 % of control | [12] 100 % of control

CCOC(=O)CCOCOCCC(=O)OCC
inactive: dose: 100.0 mg/kg/injection, schedule: Q01DX009 (ip), vehicle: saline 100 % of control | dose: 200.0 mg/kg/injection, schedule: Q01DX009 (ip), vehicle: saline 115 % of control | dose: 400.0 mg/kg/injection, schedule: Q01DX009 (ip), vehicle: saline 110 % of control

Oc1cc(O)cc(/C=C/c2ccc(O)c(O)c2)c1
inactive: dose: 3.12 mg/kg/injection, schedule: Q01DX009 (ip), vehicle: DMSO 109 % of control | dose: 6.25 mg/kg/injection, schedule: Q01DX009 (ip), vehicle: DMSO 114 % of control | dose: 12.5 mg/kg/injection, schedule: Q01DX009 (ip), vehicle: DMSO 118 % of control | dose: 25.0 mg/kg/injection, schedule: Q01DX009 (ip), vehicle: DMSO 123 % of control

O=C(O)C[CH2][Sn]([Cl])([Cl])[CH2]CC(=O)O
inactive: [10] 98 % of control | [11] 98 % of control | [12] 91 % of control

O=C(O)CCN1c2ccccc2Sc2ccccc21
inactive: [13] 89 % of control | [14] 100 % of control | [15] 99 % of control | dose: 400.0 mg/kg/injection, schedule: Q01DX009 (ip), vehicle: Klucel (hydroxypropylcellulose) (HPC) 101 % of control

Cc1cc(C)cc(N=Cc2ccc(C=Nc3cc(C)cc(C)c3)cc2)c1
inactive: [13] 92 % of control | [14] 95 % of control | [15] 100 % of control

O=C(Nc1cccc2ccccc12)Oc1cccc2cccnc12
inactive: [16] 89 % of control | [17] 86 % of control | [18] 89 % of control

N#CCCC12CCC(=O)N1Cc1ccccc1C2=O (configuration not stated)
inactive: dose: 60.0 mg/kg/injection, schedule: Q01DX005 (ip), vehicle: saline 105 % of control | dose: 120.0 mg/kg/injection, schedule: Q01DX005 (ip), vehicle: saline 123 % of control | dose: 240.0 mg/kg/injection, schedule: Q01DX005 (ip), vehicle: saline 123 % of control

Cc1ccc(S(=O)(=O)NC(=O)/N=C2\NC(=O)CS2)cc1
inactive: [1] 100 % of control | [2] 103 % of control | [3] 91 % of control

c1ccc2c(C3N4CCCN3CC4)c[nH]c2c1 (configuration not stated)
inactive: [16] 103 % of control and 104 % of control and 119 % of control | [17] 98 % of control and 106 % of control and 118 % of control | [18] 103 % of control and 114 % of control and 122 % of control | dose: 200.0 mg/kg/injection, schedule: Q01DX009 (ip), vehicle: saline with Tween-80 105 % of control and 95 % of control

CP1(=O)CC23CCCCC2(C1)O3 (configuration not stated)
inactive: [13] 109 % of control | [14] 104 % of control | [15] 109 % of control

O=C(O)C(C1CC(Cl)=NO1)N1C(=O)c2ccccc2C1=O (configuration not stated)
inactive: dose: 6.2 mg/kg/injection, schedule: Q04DX003 (ip), vehicle: other 101 % of control | dose: 12.5 mg/kg/injection, schedule: Q04DX003 (ip), vehicle: other 100 % of control | dose: 25.0 mg/kg/injection, schedule: Q04DX003 (ip), vehicle: other 105 % of control | dose: 50.0 mg/kg/injection, schedule: Q04DX003 (ip), vehicle: other 99 % of control | dose: 100.0 mg/kg/injection, schedule: Q04DX003 (ip), vehicle: other 101 % of control | dose: 200.0 mg/kg/injection, schedule: Q04DX003 (ip), vehicle: other 99 % of control

CCCCCCCCCCCC(=O)OOC(C)(C)C
inactive: [4] 100 % of control | [5] 102 % of control | [6] 97 % of control

NC(=O)N/N=C/Cn1ccc(=O)[nH]c1=O
inactive: [10] 99 % of control | [11] 97 % of control | [12] 90 % of control

Nc1c(C(=O)Nc2ccc(NC(=O)c3ccc4c(c3N)C(=O)c3ccccc3C4=O)c3c2C(=O)c2ccccc2C3=O)ccc2c1C(=O)c1ccccc1C2=O
inactive: dose: 50.0 mg/kg/injection, schedule: Q01DX009 (ip), vehicle: suspension in saline 103 % of control | dose: 100.0 mg/kg/injection, schedule: Q01DX009 (ip), vehicle: suspension in saline 106 % of control | dose: 200.0 mg/kg/injection, schedule: Q01DX009 (ip), vehicle: suspension in saline 103 % of control

N#CC1(C#N)C2C=CC(C3CC=CC32)C1(C#N)C#N (configuration not stated)
inactive: dose: 3.13 mg/kg/injection, schedule: Q01DX009 (ip), vehicle: Klucel (hydroxypropylcellulose) (HPC) 106 % of control | [7] 98 % of control | [8] 110 % of control | [9] 108 % of control
